Measured values published in PMC6470784, “Effect of Stereochemical Configuration on the Transport and Metabolism of Catechins from Green Tea across Caco-2 Monolayers” (Molecules, 2019).
Where a name gives a salt, the structure may show the parent alone. Read-outs that look alike come from different tables or passages of the source.

How the values were obtained:
[1] = system: Caco-2 cell monolayers; experiment: Bidirectional transepithelial transport across Caco-2 monolayers (Papp, efflux ratio), with and without MK571; details: Caco-2 monolayers, MK571 93.11 μmol/L
Description: (§1) For the transport experiments, the cells were seeded in 24-mm i.d Transwell® inserts (polycarbonate membrane, 0.4 μM pore size, Corning Costar Co., (Corning, NY, USA) in six-well plates at a density of 4 × 10^5 cells/well, and were cultured for 21 days prior to the transport experiments. To monitor the integrity of the cell layers, transepithelial electrical resistance (TEER) values were measured using a Millicell-ERS Voltohmmeter (Millipore Corp, Bedford, MA, USA). TEER values above 513.7 Ω·cm^2 in the culture medium were selected for the transport experiment.
(§2) For the transport of GTCs across the Caco-2 monolayers, the inserts were gently washed twice and were equilibrated at 37 °C for 30 min with 0.01 M modified phosphate buffer saline (PBS+), which was supplemented with 0.45 M calcium chloride and 0.4 M potassium chloride, and adjusted to pH 6.0 [7]. In the transepithelial transport, GTCs at different concentrations in PBS+ (DMSO less than 0.5%) were loaded into the apical (AP) or basolateral (BL) side, the so-called donor side. The plate was then incubated at 37 °C. At designated time intervals, aliquots of 0.5 mL of sample were taken from the other side, the so-called receiver side, and then replaced with an equal volume of PBS+. After that, the samples were dried with a CoolSafe freeze dryer (LaboGene ApS, Bjarkesvej, Denmark) at −110 °C, and stored at −20 °C until analysis.
(§3) For the inhibition of transport, MK571 was used at a concentration of 93.11 μmol/L (50 μg/mL with a DMSO less than 0.3%). The cells were preincubated with the inhibitor for 30 min. Then, the bi-directional transport studies of the GTCs in the presence of MK-571 at both the donor and receiver side were performed as for the transport method described above.
(§4) The transport samples were analyzed by an Agilent LC 1260 system (Agilent Technologies, CA, USA) after redissolving with 50 μL methyl into vial inserts (100 uL; Agilent Technologies, CA, USA). The separation was performed on an Octadecylsilyl (ODS) reversed-phase column (4.6 mm i.d. × 250 mm, 4.5 μm; TC-C18, Agilent Technologies) using a diode array detector (DAD) at 278 nm. The mobile phase consisted of 15% methanol and 0.1% formic acid at a flow-rate of 0.8 mL/min.
(§5) The values were expressed as the mean ± standard deviation (SD) of three replications. The statistical significances of the difference between the various groups were analyzed using the Fisher’s least significant difference (LSD) procedure. For comparison between the two groups, the Student’s t-test was used. The differences were considered to be significant when p < 0.05.

[2] = cited from earlier work
[3] = parameters: method as in PMID 10909265; details: rats, cited from earlier work
[4] = system: MRP2; experiment: MRP2 mRNA level in Caco-2 cells (qRT-PCR); type: cell-based, human; details: 300 μmol/L, 2 h
Description: The Caco-2 cells were seeded in six-well plates (Corning Costar Co., NY, USA) at a density of 4 × 10^4 cells/cm^2, and were cultured for 21 days. After incubation with each tea catechins (300 μmol/L in full culture medium) for 2 h or 24 h, the total RNA from the Caco-2 cells were isolated with a Total RNA Kit (Aidlab, Beijing, China). First-strand cDNA was synthesized using a cDNA synthesis Kit (Aidlab, Beijing, China). The gene expression of MRP2 was examined by quantitative real-time PCR with the SYBR Green qPCR Mix (Aidlab, Beijing, China) in an ABI7500 Real-Time System (Applied Biosystems, USA). The reaction was carried out in a 10 μL RT-reaction mixture containing 5 μL 2 × SYBR Green qPCR Mix, 0.2 μL forward and reverse primers (10 μmol/μL), and water to a final volume of 10 μL, and was performed under the following cycling conditions: an initial denaturing step of 10 min at 95 °C, followed by 40 cycles consisting of 5 s at 95 °C and 34 s at 60 °C.
All of the qPCR experiments were repeated in three biologicals. The data were analyzed using the 2-ΔΔCT method. All of the primers were synthesized by Sangon Biotech (Shanghai, China), as previously described, and their sequences are depicted in Table 3.

[5] = Bidirectional transepithelial transport across Caco-2 monolayers (Papp, efflux ratio), with and without MK571; details: human; for Papp A→B at 300 μmol/L / Papp B→A at 300 μmol/L / Papp at 300 μmol/L: Caco-2, pH 6
Description: as §1, §2, §3, §4, §5

[6] = system: MRP2; experiment: MRP2 protein level in Caco-2 cells (Western blot); type: cell-based, human; details: 300 μmol/L, 2 h
Description: After being washed by precooled PBS buffer three times, the total lysate was prepared on ice from 5 to 8 × 10^6 cells by lysis in a 150 μL Radio Immunoprecipitation Assay (RIPA) Lysis buffer containing 1% (v/v) Phenylmethanesulfonyl fluoride (PMSF) (Beyotime, Shanghai, China). The lysates were centrifuged at 13,000 rpm for 20 min at 4 °C, after mixing uniformity. The protein-containing supernatant was collected and the protein content was determined using the Bio-Rad protein assay. Western blotting was performed according to standard techniques, as previously described. In each lane of a Bio-Rad minigel system, 10 μg of protein was loaded. For the detection of BCRP, P-glycoprotein (MDR1), and MRP2, the following polyclonal antibodies were used: rabbit anti-BCRP (1:1000), rabbit anti-P-glycoprotein (1:1000), and rabbit anti-MRP2 (1:600). Horseradish peroxidase (HRP)-conjugated goat anti-rabbit (1:3000) were used as the secondary antibodies. As a loading control, the expression of β-actin was determined using an antibody against β-actin (1:40,000). Enhanced chemiluminescence (ECL) solutions were used for chemiluminescence.

[7] = system: BCRP; experiment: BCRP mRNA level in Caco-2 cells (qRT-PCR); type: cell-based, human; details: 2 h
Description: All of the qPCR experiments were repeated in three biologicals. The data were analyzed using the 2-ΔΔCT method [39]. All of the primers were synthesized by Sangon Biotech (Shanghai, China), as previously described [40], and their sequences are depicted in Table 3.

[8] = in vitro; details: human; for Papp A→B at 300 μmol/L / Papp B→A at 300 μmol/L / Papp at 300 μmol/L: Caco-2, pH 6; for efflux ratio: Caco-2, pH 6, Efflux ratio in the absence of MK571
Description: as §1, §2, §3, §4, §5

[9] = system: BCRP; parameters: method as in PMID 20149610; details: MCF-7 cell line, 100 μg/mL; cited from earlier work
[10] = system: MRP2; parameters: method as in PMID 23146761; details: rats, 24 h; cited from earlier work
[11] = system: P-glycoprotein; parameters: method as in PMID 15285844; details: KB-C2 cells; cited from earlier work
[12] = rats, intragastric administration
[13] = Caco-2, pH 6, Efflux ratio in the absence of MK571, Caco-2 monolayers, no MK571
[14] = Caco-2, pH 6, with MK571 93.11 μmol/L (50 μg/mL), Efflux ratio in the presence of MK571, Caco-2 monolayers, MK571 93.11 μmol/L

| Papp A→B at 300 μmol/L [5] [×10⁻⁶ cm/s] | Papp B→A at 300 μmol/L [5] [×10⁻⁶ cm/s] | efflux ratio [5, 13] | efflux ratio [5, 14] | SMILES | Increase of mRNA levels of MRP2 [4] [%] | Increase of protein level of MRP2 [6] [%] | BCRP gene expression [7] | Papp A→B at 300 μmol/L [8] [×10⁻⁶ cm/s] | Papp B→A at 300 μmol/L [8] [×10⁻⁶ cm/s] | efflux ratio [8] | Cellular accumulation of rhodamine-123 and daunorubicin [11] | further results |
| --- | --- | --- | --- | --- | --- | --- | --- | --- | --- | --- | --- | --- |
| – | – | – | – | CN(C)C(=O)CCSC(SCCC(=O)O)c1cccc(/C=C/c2ccc3ccc(Cl)cc3n2)c1 (stereo not shown) [MK-571, MK-571 sodium salt hydrate, reference compound] | – | – | – | – | – | – | – | Effect of MK-571 on the efflux of eight catechins [1]: significantly inhibit |
| 0.152 ± 0.017 | 1.69 ± 0.163 | 11.2 | 1.06 | Oc1cc(O)c2c(c1)O[C@H](c1ccc(O)c(O)c1)[C@H](O)C2 [EC, (−)-epicatechin] | 41.67 | 60.00 | upregulation | – | – | – | – | Bioavailability [2, 12]: 31%; Plasma concentration following oral administration ([3]; 250 mg/kg): 53 µM |
| – | – | – | – | Oc1cc(O)c2c(c1)O[C@@H](c1cc(O)c(O)c(O)c1)[C@H](O)C2 [GC, (+)-gallocatechin] | 119.33 | 37.67 | – | 0.264 ± 0.021 | 0.875 ± 0.028 | 3.32 | – | Papp at 300 μmol/L [8]: < 1 ×10⁻⁶ cm/s |
| 0.093 ± 0.008 | 0.257 ± 0.01 | 2.75 | 1.05 | O=C(O[C@@H]1Cc2c(O)cc(O)cc2O[C@@H]1c1cc(O)c(O)c(O)c1)c1cc(O)c(O)c(O)c1 [EGCG, (−)-epigallocatechin gallate] | 89.57 | 42.67 | upregulation | – | – | – | increase the cellular accumulation | Bioavailability [2, 12]: 0.1%; mRNA transcription and protein level of BCRP [9]: not changed; Protein level of MRP2 on the hepatocyte canalicular membrane [10]: significantly decreased; Plasma concentration following oral administration ([3]; 2500 mg/kg): 244.3 µM |
| 0.156 ± 0.011 | – | 16.7 | 1.34 | Oc1cc(O)c2c(c1)O[C@H](c1ccc(O)c(O)c1)[C@@H](O)C2 [C, (+)-catechin] | 14.05 | 58.33 | – | – | – | – | – | Papp at 300 μmol/L [5]: < 1 ×10⁻⁶ cm/s |
| – | – | – | – | O=C(O[C@@H]1Cc2c(O)cc(O)cc2O[C@H]1c1ccc(O)c(O)c1)c1cc(O)c(O)c(O)c1 [CG, (−)-catechin gallate] | 123.09 | 132.00 | upregulation | 0.139 ± 0.012 | 0.651 ± 0.042 | 4.68 | – | Papp at 300 μmol/L [8]: < 1 ×10⁻⁶ cm/s |
| 0.103 ± 0.021 | 0.293 ± 0.013 | 2.84 | 1.24 | O=C(O[C@@H]1Cc2c(O)cc(O)cc2O[C@H]1c1cc(O)c(O)c(O)c1)c1cc(O)c(O)c(O)c1 [GCG, (−)-gallocatechin gallate] | 133.15 | 20.67 | upregulation | – | – | – | – | Papp at 300 μmol/L [5]: < 1 ×10⁻⁶ cm/s |
| – | – | – | – | Oc1cc(O)c2c(c1)O[C@H](c1cc(O)c(O)c(O)c1)[C@H](O)C2 [EGC, (−)-epigallocatechin] | 103.58 | 35.67 | – | 0.246 ± 0.01 | 0.674 ± 0.062 | 2.74 | increase the cellular accumulation | Bioavailability ([2]; rat, in vivo, po): 13.7% |
| – | – | – | – | O=C(O[C@@H]1Cc2c(O)cc(O)cc2O[C@@H]1c1ccc(O)c(O)c1)c1cc(O)c(O)c(O)c1 [ECG, (−)-epicatechin gallate] | 85.18 | 24.67 | upregulation | 0.138 ± 0.009 | 0.387 ± 0.031 | 2.82 | increase the cellular accumulation | Plasma concentration following oral administration ([3]; 650 mg/kg): 33.5 µM |
